{"source": "patent US12606541B2", "about": "“PPARg modulators and methods of use” (Eisai R&D Management Co., Ltd., priority 2020, dated 2026)", "key": {"[1]": {"target": "T1, His6-TEV-PPARγ-(234-505) (Homo sapiens, UniProt P37231)", "T1 construct": "The His6-TEV-PPARγ-(234-505) protein for assay was expressed and purified; TEV cleavage site (N); made in house", "T1 sequence (P37231 234-505)": "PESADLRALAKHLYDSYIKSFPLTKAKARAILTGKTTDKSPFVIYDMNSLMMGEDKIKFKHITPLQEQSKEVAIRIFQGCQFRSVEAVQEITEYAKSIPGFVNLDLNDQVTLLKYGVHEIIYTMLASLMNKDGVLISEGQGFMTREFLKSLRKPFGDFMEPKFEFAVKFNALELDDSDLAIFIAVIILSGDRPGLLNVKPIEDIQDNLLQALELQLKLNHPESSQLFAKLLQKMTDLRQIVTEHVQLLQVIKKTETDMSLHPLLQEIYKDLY", "assay": "TR-FRET Assay to Measure Co-R Peptide Recruitment to PPARγ", "type": "biochemical", "settings": "Co-R peptide (SMRT-ID2) recruitment; top final concentration 20 μM; read-out: TR-FRET i-Ag; AC50", "summary_of_the_method": "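Corepressor recruitment is measured by adding terbium-labeled anti-His antibody and FITC SMRT-ID2 peptide, at 5 and 200 nM final, after a 20-minute room-temperature protein–compound incubation. After one further hour, signal is converted to percent response between DMSO and 500 nM T0070907 wells.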"}, "[2]": {"system": "UM-UC-9 engineered cells", "assay": "Cell proliferation / short-term viability assay, CellTiter-Glo 144 h", "type": "cell-based, human", "settings": "Homo sapiens, UM-UC-9, 144 h, read-out: CTGlo 144 h UMUC9.5, G150", "summary_of_the_method": "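Viability read by CellTiter-Glo 2.0 luminescence at day 7 versus DMSO-vehicle wells and a T0 plate measured on day 0. Cells: UM-UC-9 engineered assay-ready stocks, 500 cells/well in high-glucose DMEM with 10% FBS, 37° C, 5% CO2.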"}}, "data": [{"smiles": "Cc1cc(-c2cc(C(=O)N3[C@@H]4CC[C@H]3C[C@H](C(=O)N[C@H]3CC[C@@](O)(C(F)(F)F)CC3)C4)n[nH]2)c2cn[nH]c2n1", "note": "[Example 315, (1R,3s,5S)—N-((1r,4R)-4-hydroxy-4-(trifluoromethyl)cyclohexyl)-8-(5-(6-methyl-1H-pyrazolo[3,4-b]pyridin-4-yl)-1H-pyrazole-3-carbonyl)-8-azabicyclo[3.2.1]octane-3-carboxamide]", "values": [{"measurement": "AC50", "setting": "[1]", "value": 863, "unit": "nM"}, {"measurement": "IC50", "setting": "[2]", "value": "> 10000", "unit": "nM"}]}, {"smiles": "CCc1cc(-c2cc(C(=O)N3[C@@H]4CC[C@H]3C[C@H](C(=O)N[C@H]3CC[C@@](O)(C(F)(F)F)CC3)C4)n[nH]2)ccn1", "note": "[Example 316, (1R,3s,5S)-8-(5-(2-ethylpyridin-4-yl)-1H-pyrazole-3-carbonyl)-N-((1r,4R)-4-hydroxy-4-(trifluoromethyl)cyclohexyl)-8-azabicyclo[3.2.1]octane-3-carboxamide]", "values": [{"measurement": "AC50", "setting": "[1]", "value": 67.9, "unit": "nM"}, {"measurement": "IC50", "setting": "[2]", "value": 3390, "unit": "nM"}]}, {"smiles": "O=C(N[C@H]1CC[C@@](O)(C(F)(F)F)CC1)[C@@H]1C[C@H]2CC[C@@H](C1)N2C(=O)c1cc(-c2ccnc(CO)c2)[nH]n1", "note": "[Example 317, (1R,3s,5S)—N-((1r,4R)-4-hydroxy-4-(trifluoromethyl)cyclohexyl)-8-(5-(2-(hydroxymethyl)pyridin-4-yl)-1H-pyrazole-3-carbonyl)-8-azabicyclo[3.2]octane-3-carboxamide]", "values": [{"measurement": "AC50", "setting": "[1]", "value": 344, "unit": "nM"}, {"measurement": "IC50", "setting": "[2]", "value": "> 10000", "unit": "nM"}]}, {"smiles": "COc1cc(-c2cc(C(=O)N3[C@@H]4CC[C@H]3C[C@H](C(=O)NC3CCC5(CC3)OCC5C(F)(F)F)C4)n[nH]2)c(F)cn1", "note": "(stereo partly drawn) [Example 318]", "values": [{"measurement": "AC50", "setting": "[1]", "value": 340, "unit": "nM"}, {"measurement": "IC50", "setting": "[2]", "value": 372, "unit": "nM"}]}, {"smiles": "COc1cc(-c2cc(C(=O)N3[C@@H]4CC[C@H]3C[C@H](C(=O)NC3CCC5(CC3)OCC(F)C5F)C4)n[nH]2)c(F)cn1", "note": "(stereo partly drawn) [Example 319, (1R,3s,5S)—N-(3,41-difluoro-1-oxaspiro[4.5]decan-8-yl)-8-(5-(5-fluoro-2-methoxypyridin-4-yl)-1H-pyrazole-3-carbonyl)-8-azabicyclo[3.2.1]octane-3-carboxamide]", "values": [{"measurement": "AC50", "setting": "[1]", "value": 124, "unit": "nM"}, {"measurement": "IC50", "setting": "[2]", "value": 232, "unit": "nM"}]}, {"smiles": "COc1cc(-c2cc(C(=O)N3CC[C@H](C(=O)N[C@H]4CC[C@@](OCCN(C)C)(C(F)(F)F)CC4)CC34CC4)n[nH]2)c(F)cn1", "note": "[Example 329-A, (S)—N-((1r,4S)-4-(2-(dimethylamino)ethoxy)-4-(trifluoromethyl)cyclohexyl)-4-(5-(5-fluoro-2-methoxypyridin-4-yl)-1H-pyrazole-3-carbonyl)-4-azaspiro[2.5]octane-7-carboxamide]", "values": [{"measurement": "AC50", "setting": "[1]", "value": 7.5, "unit": "nM"}, {"measurement": "IC50", "setting": "[2]", "value": 24.3, "unit": "nM"}]}, {"smiles": "COc1cc(-c2cc(C(=O)N3CC[C@@H](C(=O)N[C@H]4CC[C@@](OCCN(C)C)(C(F)(F)F)CC4)CC34CC4)n[nH]2)c(F)cn1", "note": "[Example 329-B, (R)—N-((1r,4R)-4-(2-(dimethylamino)ethoxy)-4-(trifluoromethyl)cyclohexyl)-4-(5-(5-fluoro-2-methoxypyridin-4-yl)-1H-pyrazole-3-carbonyl)-4-azaspiro[2.5]octane-7-carboxamide]", "values": [{"measurement": "AC50", "setting": "[1]", "value": 452, "unit": "nM"}, {"measurement": "IC50", "setting": "[2]", "value": 1650, "unit": "nM"}]}, {"smiles": "COc1cc(-c2cc(C(=O)N3CC[C@H](C(=O)NCC45CCC(O)(C4)C5)CC34CC4)n[nH]2)c(F)cn1", "note": "[Example 334, (S)-4-(5-(5-fluoro-2-methoxypyridin-4-yl)-1H-pyrazole-3-carbonyl)-N-((4-hydroxybicyclo[2.1.1]hexan-1-yl)methyl)-4-azaspiro[2.5]octane-7-carboxamide]", "values": [{"measurement": "AC50", "setting": "[1]", "value": 72.6, "unit": "nM"}, {"measurement": "IC50", "setting": "[2]", "value": 284, "unit": "nM"}]}, {"smiles": "COc1cc(-c2cc(C(=O)N3CCC(C(=O)NCC45CCC(O)(C4)C5)CC34CC4)n[nH]2)c(F)cn1", "note": "(stereo not drawn) [Example 335, 4-(5-(5-fluoro-2-methoxypyridin-4-yl)-1H-pyrazole-3-carbonyl)-N-((4-hydroxybicyclo[2.1.1]hexan-1-yl)methyl)-4-azaspiro[2.5]octane-7-carboxamide]", "values": [{"measurement": "AC50", "setting": "[1]", "value": 417, "unit": "nM"}, {"measurement": "IC50", "setting": "[2]", "value": 6150, "unit": "nM"}]}, {"smiles": "COc1cc(-c2cc(C(=O)N3CC[C@H](C(=O)NCC45CC(O)(C4)C5)CC34CC4)n[nH]2)c(F)cn1", "note": "[Example 336, (S)-4-(5-(5-fluoro-2-methoxypyridin-4-yl)-1H-pyrazole-3-carbonyl)-N-((3-hydroxybicyclo[1.1.1]pentan-1-yl)methyl)-4-azaspiro[2.5]octane-7-carboxamide]", "values": [{"measurement": "AC50", "setting": "[1]", "value": 109, "unit": "nM"}, {"measurement": "IC50", "setting": "[2]", "value": 1050, "unit": "nM"}]}, {"smiles": "COc1cc(-c2cc(C(=O)N3CC[C@H](C(=O)NCC45COC(C)(C4)C5)CC34CC4)n[nH]2)c(F)cn1", "note": "[Example 343, (S)-4-(5-(5-fluoro-2-methoxypyridin-4-yl)-1H-pyrazole-3-carbonyl)-N-((1-methyl-2-oxabicyclo[2.1.1]hexan-4-yl)methyl)-4-azaspiro[2.5]octane-7-carboxamide]", "values": [{"measurement": "AC50", "setting": "[1]", "value": 20, "unit": "nM"}, {"measurement": "IC50", "setting": "[2]", "value": 93, "unit": "nM"}]}, {"smiles": "COc1cc(-c2cc(C(=O)N3CC[C@@H](C(=O)N[C@@H]4CCN(CC(C)(C)O)C4)CC34CC4)[nH]n2)c(F)cn1", "note": "[Example 344-A, (R)-4-(3-(5-fluoro-2-methoxypyridin-4-yl)-1H-pyrazole-5-carbonyl)-N—((R)-1-(2-hydroxy-2-methylpropyl)pyrrolidin-3-yl)-4-azaspiro[2.5]octane-7-carboxamide]", "values": [{"measurement": "AC50", "setting": "[1]", "value": 14800, "unit": "nM"}, {"measurement": "IC50", "setting": "[2]", "value": "> 10000", "unit": "nM"}]}, {"smiles": "COc1cc(-c2cc(C(=O)N3CC[C@H](C(=O)N[C@@H]4CCN(CC(C)(C)O)C4)CC34CC4)[nH]n2)c(F)cn1", "note": "[Example 344-B, (S)-4-(3-(5-fluoro-2-methoxypyridin-4-yl)-1H-pyrazole-5-carbonyl)-N—((R)-1-(2-hydroxy-2-methylpropyl)pyrrolidin-3-yl)-4-azaspiro[2.5]octane-7-carboxamide]", "values": [{"measurement": "AC50", "setting": "[1]", "value": 123, "unit": "nM"}, {"measurement": "IC50", "setting": "[2]", "value": 570, "unit": "nM"}]}, {"smiles": "COc1cc(-c2cc(C(=O)N3CC[C@H](C(=O)NC4CCN(CC(C)(C)O)C4)CC34CC4)[nH]n2)c(F)cn1", "note": "(stereo partly drawn) [Example 345-A, (S)-4-(3-(5-Fluoro-2-methoxypyridin-4-yl)-1H-pyrazole-5-carbonyl)-N-(1-(2-hydroxy-2-methylpropyl)pyrrolidin-3-yl)-4-azaspiro[2,5]octane-7-carboxamide]", "values": [{"measurement": "AC50", "setting": "[1]", "value": 161, "unit": "nM"}, {"measurement": "IC50", "setting": "[2]", "value": 445, "unit": "nM"}]}, {"smiles": "COc1cc(-c2cc(C(=O)N3CC[C@@H](C(=O)N[C@H]4CCN(CC(C)(C)O)C4)CC34CC4)[nH]n2)c(F)cn1", "note": "[Example 345-B, (R)-4-(3-(5-Fluoro-2-methoxypyridin-4-yl)-1H-pyrazole-5-carbonyl)-N—((S)-1-(2-hydroxy-2-methylpropyl)pyrrolidin-3-yl)-4-azaspiro[2.5]octane-7-carboxamide]", "values": [{"measurement": "AC50", "setting": "[1]", "value": 7250, "unit": "nM"}, {"measurement": "IC50", "setting": "[2]", "value": "> 10000", "unit": "nM"}]}, {"smiles": "COc1cc(-c2cc(C(=O)N3CC[C@H](C(=O)NC4CCC5(CCCN5)CC4)CC34CC4)n[nH]2)c(F)cn1", "note": "(stereo partly drawn) [Example 348, (S)-4-(5-(5-fluoro-2-methoxypyridin-4-yl)-1H-pyrazole-3-carbonyl)-N-(1-azaspiro[4.5]decan-8-yl)-4-azaspiro[2.5]octane-7-carboxamide]", "values": [{"measurement": "AC50", "setting": "[1]", "value": 305, "unit": "nM"}, {"measurement": "IC50", "setting": "[2]", "value": "> 10000", "unit": "nM"}]}, {"smiles": "COc1cc(-c2cc(C(=O)N3CC[C@H](C(=O)NC4CCC5(CCCN5C5COC5)CC4)CC34CC4)n[nH]2)c(F)cn1", "note": "(stereo partly drawn) [Example 349, (S)-4-(5-(5-fluoro-2-methoxypyridin-4-yl)-1H-pyrazole-3-carbonyl)-N-(1-(oxetan-3-yl)-1-azaspiro[4.5]decan-8-yl)-4-azaspiro[2.5]octane-7-carboxamide]", "values": [{"measurement": "AC50", "setting": "[1]", "value": 187, "unit": "nM"}, {"measurement": "IC50", "setting": "[2]", "value": 836, "unit": "nM"}]}, {"smiles": "COc1cc(-c2cc(C(=O)N3CC[C@H](C(=O)N[C@H]4CC[C@@](OCCN)(C(F)(F)F)CC4)CC34CC4)n[nH]2)c(F)cn1", "note": "[Example 350, (S)—N-((1r,4S)-4-(2-aminoethoxy)-4-(trifluoromethyl)cyclohexyl)-4-(5-(5-fluoro-2-methoxypyridin-4-yl)-1H-pyrazole-3-carbonyl)-4-azaspiro[2.5]octane-7-carboxamide]", "values": [{"measurement": "AC50", "setting": "[1]", "value": 5.3, "unit": "nM"}, {"measurement": "IC50", "setting": "[2]", "value": 176, "unit": "nM"}]}, {"smiles": "COc1cc(-c2cc(C(=O)N3CC[C@H](C(=O)NC4CCC5(CCCN5CC(C)(F)F)CC4)CC34CC4)n[nH]2)c(F)cn1", "note": "(stereo partly drawn) [Example 351, (S)—N-(1-(2,2-difluoropropyl)-1-azaspiro[4.5]decan-8-yl)-4-(5-(5-fluoro-2-methoxypyridin-4-yl)-1H-pyrazole-3-carbonyl)-41-azaspiro[2.5]octane-7-carboxamide]", "values": [{"measurement": "AC50", "setting": "[1]", "value": 256, "unit": "nM"}, {"measurement": "IC50", "setting": "[2]", "value": 450, "unit": "nM"}]}, {"smiles": "COc1cc(-c2cc(C(=O)N3CC[C@H](C(=O)N[C@H]4CC[C@@](OC[C@H](C)N)(C(F)(F)F)CC4)CC34CC4)n[nH]2)c(F)cn1", "note": "[Example 352, (S)—N-((1548)-4-((S)-2-aminopropoxy)-4-(trifluoromethyl)cyclohexyl)-4-(5-(5-fluoro-2-methoxypyridin-4-yl)-1H-pyrazole-3-carbonyl)-4-azaspiro[2.5]octane-7-carboxamide]", "values": [{"measurement": "AC50", "setting": "[1]", "value": 7.7, "unit": "nM"}, {"measurement": "IC50", "setting": "[2]", "value": 134, "unit": "nM"}]}, {"smiles": "COc1cc(-c2cc(C(=O)N3CC[C@H](C(=O)N[C@H]4CC[C@@](OC[C@H](C)O)(C(F)(F)F)CC4)CC34CC4)n[nH]2)c(F)cn1", "note": "[Example 353, (S)-4-(5-(5-fluoro-2-methoxypyridin-4-yl)-1H-pyrazole-3-carbonyl)-N-((1S,4S)-4-((S)-2-hydroxypropoxy)-4-(trifluoromethyl)cyclohexyl)-4-azaspiro[2.5]octane-7-carboxamide]", "values": [{"measurement": "AC50", "setting": "[1]", "value": 6.6, "unit": "nM"}, {"measurement": "IC50", "setting": "[2]", "value": 6, "unit": "nM"}]}]}
